Where “and” joins values, the source holds several entries; their conditions need not be identical. Equal entries are not always repeated.
Assay: rat acute oral toxicity
Details: in vivo
Text: […]The data set underlying the modeling effort for this project was initially compiled by NICEATM and U.S. EPA’s CCTE. Briefly, LD50 data were collected from rat acute oral systemic toxicity tests, including limit tests, ranges/confidence intervals, and discrete LD50 values. The full data set included 21,200 LD50 entries for 15,688 substances. […] Data were reviewed to ensure that LD50 values with obvious errors in the extracted data such as unit conversion errors (e.g., comma and decimal separator misplacements) were either fixed or removed. After this review, 16,209 LD50 values remained. Many of the chemicals represented had multiple LD50 entries, requiring that a single representative value per Chemical Abstracts Service Registry Number (CASRN) identifier be defined to facilitate modeling efforts. Based on ATWG feedback and to define the representative LD50 as a protective value while accounting for the distribution across multiple LD50s, the median of the lowest quartile was computed using only discrete LD50 values (omitting limit test data and range and confidence interval data). A detailed summary of the data compilation is available online on the NICEATM webpage dedicated to the collaborative modeling project (NTP 2020).
[…][…] For categorical designations, limit test and range/confidence interval LD50 data were integrated wherever possible. As such, the number of chemicals with end point values/calls varies across the modeling end points (Table 3) based on whether chemicals had representative LD50 values and/or other data. If a chemical had both, the representative value was used to determine categorical calls rather than limit test data. Some data were useable only for certain end points and categories depending on the thresholds. For example, ranges that spanned multiple hazard categories were considered only for the binary (very toxic/nontoxic) end points and omitted from rendering a determination for hazard category assignment.
[…]The final data set comprising 11,992 chemicals was split into training and evaluation sets […], respectively. This process was performed semirandomly by ordering chemicals based on the five end points (categorical and continuous LD50 values) and partitioning every fourth record into the evaluation set accordingly. This approach was taken to ensure an equivalent distribution of the LD50 values and the different hazard categories between the training and the evaluation sets without supervised sampling of the chemicals based on structures (Figure 1A). The sources of the chemical structures were also kept equivalent between the two sets, with chemical structures obtained from DSSTox, being the highest quality, representing over 75% of each set (Figure 1B).

SMILES | LD50
O=C(O)CC(O)C(=O)O (centres undefined) | 9300 mg/kg and 3200 mg/kg
c1ccc(-c2ccccn2)nc1 | 100 mg/kg
CCCCCCCCOC(=O)c1ccccc1C(=O)OCCCCCCCC | 47000 mg/kg
Cc1ccccc1OP(=O)(Oc1ccccc1C)Oc1ccccc1C | 1160 mg/kg
N#Cc1ccc(Cl)c(Cl)c1 | 200 mg/kg
C=CC(=O)NC(C)(C)CC(C)=O | 1000 mg/kg
CC1(C)CC(=O)CC(C)(C)N1 | 1330 mg/kg
CCN | 400 mg/kg
COc1ccc(Cc2nccc3cc(OC)c(OC)cc23)cc1OC | 325 mg/kg
CNC(=S)S | 615 mg/kg
CC(C1CC1)C(O)(Cn1cncn1)c1ccc(Cl)cc1 (centres undefined) | 350 mg/kg
CN(C)C(=O)C(c1ccccc1)c1ccccc1 | 685 mg/kg
COP(=O)(NC(C)=O)SC (centres undefined) | 700 mg/kg
O=C(O)c1ccccc1 | 1700 mg/kg
C[n+]1ccc(-c2cc[n+](C)cc2)cc1 | 97.5 mg/kg and 106 mg/kg
O=[N+]([O-])c1cccc(O)c1 | 328 mg/kg
CCC(C)c1cc([N+](=O)[O-])cc([N+](=O)[O-])c1OC(=O)C=C(C)C (centres undefined) | 58 mg/kg
COc1ccc(C(=O)c2ccccc2)c(O)c1 | 7400 mg/kg
C=C[Si](ON=C(C)CC)(ON=C(C)CC)ON=C(C)CC | 3520 mg/kg
O=C(O)COc1nc(Cl)c(Cl)cc1Cl | 630 mg/kg
NC(=O)c1ccccc1Cl | 1250 mg/kg
CCOP(=O)(O)C(N)=O | 2080 mg/kg
CC(C)(C)C(O)(CCc1ccc(Cl)cc1)Cn1cncn1 (centres undefined) | 1700 mg/kg
CNC(=O)ON=C1C(Cl)C2CC(C#N)C1C2 (centres undefined) | 19 mg/kg
CC1=C(C)S(=O)(=O)CCS1(=O)=O | 500 mg/kg

SMILES | LD50
CC1(C)C(=O)N(Br)C(=O)N1Cl | 485 mg/kg
CC(C)=CCC/C(C)=C/CO | 3600 mg/kg
NC(=O)/C(=C\c1ccc([N+](=O)[O-])o1)c1ccco1 | 340 mg/kg
CC(C)c1ccc(-c2ccccc2)cc1 | 4570 mg/kg
CC1CCC(CO)CC1 (centres undefined) | 707 mg/kg
O=C(CCCN1CCC(O)(c2ccc(Cl)cc2)CC1)c1ccc(F)cc1 | 128 mg/kg
C=C(C)C(=O)O | 1060 mg/kg
CC(=O)CC(=O)Nc1ccccc1Cl | 4040 mg/kg
CCO[Si](CCCN)(OCC)OCC | 1570 mg/kg
C=CC(=O)OCC(O)COCCCCOCC(O)COC(=O)C=C (centres undefined) | 200 mg/kg
NNC(N)=S | 9.16 mg/kg
S=c1sc2nc3ccccc3nc2s1 | 1800 mg/kg
CC(CCl)OC(C)CCl (centres undefined) | 240 mg/kg
C=CCn1c(=O)n(CC=C)c(=O)n(CC=C)c1=O | 707 mg/kg
CC1(C)C(C=C(Cl)Cl)C1C(=O)OCc1cccc(Oc2ccccc2)c1 (centres undefined) | 406 mg/kg
CC(C)c1ccccc1 | 1400 mg/kg
O=C1O[B-]2(OC1=O)OC(=O)C(=O)O2 | 175 mg/kg
C=CC(C)(CCC=C(C)C)OC(C)=O (centres undefined) | 13900 mg/kg
Nc1ccc(Sc2ccc(N)cc2)cc1 | 900 mg/kg
Nc1ncnc2c1ncn2C1CC(O)C(COP(=O)(O)OP(=O)(O)OP(=O)(O)O)O1 (centres undefined) | 6770 mg/kg
CCC[N+](C)(C)CC[N+](C)(C)CCO | 1850 mg/kg
COP(=O)(OC)C(O)C(Cl)(Cl)Cl (centres undefined) | 154 mg/kg
C=C(C)C(=O)OCCO | 5050 mg/kg
O=C(Nc1ccc(Cl)c(Cl)c1)C1CC1 | 215 mg/kg
O=C1NS(=O)(=O)c2ccccc21 | 8820 mg/kg

SMILES | LD50
S=c1[nH]c(=S)[nH]c(=S)[nH]1 | 1180 mg/kg
ClC1=C(Cl)C2(Cl)C3C4CC(C5OC45)C3C1(Cl)C2(Cl)Cl (centres undefined) | 3 mg/kg
Nc1ccc(Cl)cc1 | 300 mg/kg
CCCCOCCOCCOCc1cc2c(cc1CCC)OCO2 | 4570 mg/kg
N#CCCCCCCC#N | 238 mg/kg
C=C(C)C(N)=O | 1650 mg/kg
NC(=S)Nc1cccc2ccccc12 | 3 mg/kg
CC=O | 661 mg/kg
CC=C1CC2CC1C1C3C=CC(C3)C21 (centres undefined) | 666 mg/kg
CS(C)=O | 14500 mg/kg
COP(=S)(OC)SCC(=O)N(C)C=O | 218 mg/kg
O=C1OC(O)C(C(Cl)Cl)=C1Cl (centres undefined) | 128 mg/kg
C/C=C/C=O | 165 mg/kg
C=COCCCC | 10000 mg/kg
COc1cc(CNC(=O)CCCC/C=C/C(C)C)ccc1O | 148 mg/kg
O=P(OCC(Br)CBr)(OCC(Br)CBr)OCC(Br)CBr (centres undefined) | 810 mg/kg
OC(O)C(Cl)(Cl)Cl | 479 mg/kg
CCOCCOCCOCC | 4970 mg/kg
CC(C)c1cccc(C(C)C)c1N=C=Nc1c(C(C)C)cccc1C(C)C | 200 mg/kg
c1ccc(Oc2ccccc2)cc1 | 2450 mg/kg
COP(=S)(OC)Oc1ccc([N+](=O)[O-])cc1 | 6.01 mg/kg
CC(=O)OO | 39.9 mg/kg
CCN(CC)C(=S)SSC(=S)N(CC)CC | 500 mg/kg
C[Si]1(CCC(F)(F)F)O[Si](C)(CCC(F)(F)F)O[Si](C)(CCC(F)(F)F)O1 (centres undefined) | 180 mg/kg

Reference: the CATMoS acute toxicity set (Mansouri et al. 2021)
